A word on the Kd: it is the constant that tells how readily two partners part at equilibrium. By IC50 is commonly meant the concentration that gives 50% inhibition. What is called EC50 is the concentration giving half of the maximal effect.

The target of test [1] is RAF kinases (Homo sapiens, UniProt P15056, V600E). The conditions noted are these: read-out: BRAF V600E Kd; BRAF V600E.
Test [2] concerns 290 distinct kinases tested excluding mutant variants (321 in the larger panel).
Test [3] concerns MEK1 phosphorylation in the A375 human melanoma cell line. Description: cells. The conditions noted are these: A-375, read-out: pMEK IC50.
The subject of another test is A375 cells. Description: cells. Particulars: Homo sapiens, A-375, read-out: A375 Viability EC50.
In test [4] the target is RAF kinases (Homo sapiens, UniProt P04049). Description: biochemical.
RAF kinases (Homo sapiens, UniProt P04049), sequence (P04049 whole entry): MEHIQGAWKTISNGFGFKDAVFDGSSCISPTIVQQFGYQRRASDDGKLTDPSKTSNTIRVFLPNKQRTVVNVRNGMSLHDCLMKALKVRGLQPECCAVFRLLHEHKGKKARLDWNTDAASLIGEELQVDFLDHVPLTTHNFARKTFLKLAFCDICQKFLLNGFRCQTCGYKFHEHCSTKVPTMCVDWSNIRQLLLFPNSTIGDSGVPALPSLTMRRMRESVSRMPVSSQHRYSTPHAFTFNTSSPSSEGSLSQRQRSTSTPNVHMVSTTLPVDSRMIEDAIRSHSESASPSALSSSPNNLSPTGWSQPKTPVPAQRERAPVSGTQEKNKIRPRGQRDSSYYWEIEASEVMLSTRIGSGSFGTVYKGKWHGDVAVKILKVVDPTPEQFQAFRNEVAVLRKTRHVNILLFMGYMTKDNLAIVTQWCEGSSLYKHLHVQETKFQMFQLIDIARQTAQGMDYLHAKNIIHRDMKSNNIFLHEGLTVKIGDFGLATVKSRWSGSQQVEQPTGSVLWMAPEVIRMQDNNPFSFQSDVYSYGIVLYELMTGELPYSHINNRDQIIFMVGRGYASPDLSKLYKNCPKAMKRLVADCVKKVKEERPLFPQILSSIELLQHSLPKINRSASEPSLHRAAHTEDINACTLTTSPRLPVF
In test [5] the target is RAF kinases (Homo sapiens, UniProt P15056). Put plainly: biochemical.
RAF kinases (Homo sapiens, UniProt P15056), sequence (P15056 whole entry): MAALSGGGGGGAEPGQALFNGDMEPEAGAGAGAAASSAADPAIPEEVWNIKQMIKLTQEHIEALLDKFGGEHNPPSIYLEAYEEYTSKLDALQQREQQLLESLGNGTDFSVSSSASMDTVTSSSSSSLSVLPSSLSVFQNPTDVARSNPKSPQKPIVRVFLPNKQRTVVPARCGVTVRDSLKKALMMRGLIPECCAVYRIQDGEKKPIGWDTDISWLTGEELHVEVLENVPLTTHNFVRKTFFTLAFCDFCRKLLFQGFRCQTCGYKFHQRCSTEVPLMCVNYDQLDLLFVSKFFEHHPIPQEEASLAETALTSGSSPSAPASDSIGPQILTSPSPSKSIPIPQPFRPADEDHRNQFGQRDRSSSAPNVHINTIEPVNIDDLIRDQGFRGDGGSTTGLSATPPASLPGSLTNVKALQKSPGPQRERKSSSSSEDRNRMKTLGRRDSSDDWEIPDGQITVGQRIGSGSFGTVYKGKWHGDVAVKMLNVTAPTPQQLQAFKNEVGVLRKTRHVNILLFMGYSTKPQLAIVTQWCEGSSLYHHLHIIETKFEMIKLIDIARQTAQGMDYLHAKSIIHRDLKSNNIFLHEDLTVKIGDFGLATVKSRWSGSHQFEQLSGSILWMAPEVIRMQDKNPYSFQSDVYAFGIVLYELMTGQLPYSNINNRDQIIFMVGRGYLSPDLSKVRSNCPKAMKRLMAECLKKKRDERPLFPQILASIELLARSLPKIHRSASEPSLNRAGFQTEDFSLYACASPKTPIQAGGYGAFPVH
[6] abbreviates: no asterisk: panel of 290 distinct kinases.

Read-outs that look alike come from different tables or passages of the source. Some results are limits rather than exact numbers.

RAF kinases (Homo sapiens, UniProt P15056, V600E), sequence (P15056 whole entry V600E): as the sequence (P15056 whole entry) above, with V600E counted along it

In the case of `COc1cc2ncnc(Oc3cccc(NC(=O)Nc4cc(C(C)(C)C)nn4-c4ccc(C)nc4)c3)c2cc1OC` [Ex 312, 1-(3-tert-butyl-1-(6-methylpyridin-3-yl)-1H-pyrazol-5-yl)-3-(3-(6,7-dimethoxyquinazolin-4-yloxy)phenyl)urea], the Kd on RAF kinases [1] was < 250 nM; at RAF kinases [4], 250 to 500 nM; at RAF kinases [5] it was 500 to 1000 nM. In addition, in test [2] (setting [6]), the S35 entry is “D (D > 0.40)”. Moreover, in test [3], the IC50 is < 250 nM. Besides, the concentration giving a half-maximal response (EC50) in the test with A375 cells is < 250 nM.

Take `COc1cc2ncnc(Oc3cccc(NC(=O)Nc4cc(C(C)(C)C#N)nn4-c4ccccc4)c3)c2cc1OC` [Ex 308, 1-(3-(2-cyanopropan-2-yl)-1-phenyl-1H-pyrazol-5-yl)-3-(3-(6,7-dimethoxyquinazolin-4-yloxy)phenyl)urea]: the values for the Kd at RAF kinases [1], on RAF kinases [4] and on RAF kinases [5] were < 250 nM, 250 to 500 nM and 250 to 500 nM, respectively. In addition, the S35 result in test [2] (setting [6]) was “D (D > 0.40)”. Moreover, the IC50 in test [3] was < 250 nM. Further, in the test with A375 cells, the EC50 lay in the range of 250 to 500 nM.

Consider `COc1cc2ncnc(Oc3cccc(NC(=O)Nc4cc(C(C)(C)C)nn4-c4cccnc4C)c3)c2cc1OC` [Ex 305, 1-(3-tert-butyl-1-(2-methylpyridin-3-yl)-1H-pyrazol-5-yl)-3-(3-(6,7-dimethoxyquinazolin-4-yloxy)phenyl)urea], for which the figures for the Kd on RAF kinases [1], on RAF kinases [4] and on RAF kinases [5] were < 250 nM, 250 to 500 nM and 500 to 1000 nM, respectively. Besides, the S35 result in test [2] (setting [6]) was “D (D > 0.40)”. For the same compound, the half-maximal inhibitory concentration (IC50) in test [3] is < 250 nM. In addition, in the test with A375 cells, the half-maximal effective concentration (EC50) was < 250 nM.

Regarding `COc1cc2ncnc(Sc3cccc(NC(=O)Nc4cc(C(C)(F)F)nn4-c4ccccc4)c3)c2cc1OC` [Ex 319, 1-(3-(1,1-difluoroethyl)-1-phenyl-1H-pyrazol-5-yl)-3-(3-(6,7-dimethoxyquinazolin-4-ylthio)phenyl)urea], the values for the Kd on RAF kinases [1], on RAF kinases [4] and at RAF kinases [5] were < 250 nM, 250 to 500 nM and 500 to 1000 nM, respectively. The S35 result in test [2] (setting [6]) is reported as “C (0.20 < C ≦ 0.40)”. Besides, the IC50 in test [3] is < 250 nM. Moreover, the EC50 with A375 cells is < 250 nM.

Regarding `COc1cc2ncnc(Oc3cccc(NC(=O)Nc4cc(C(C)(C)C)nn4C(C)C)c3)c2cc1OC` [Ex 334, 1-(3-tert-butyl-1-isopropyl-1H-pyrazol-5-yl)-3-(3-(6,7-dimethoxyquinazolin-4-yloxy)phenyl)urea], the Kd is < 250 nM at RAF kinases [1], 250 to 500 nM at RAF kinases [4] and 250 to 500 nM on RAF kinases [5]. The S35 result in test [2] (setting [6]) was “C (0.20 < C ≦ 0.40)”. Moreover, the IC50 in test [3] is 500 to 1000 nM. The EC50 with A375 cells is 500 to 1000 nM.

For the compound `COc1cc2ncnc(Oc3cccc(NC(=O)Nc4cc(C(C)(C)C)nn4-c4cc[nH]c(=O)c4)c3)c2cc1OC` [Ex 313, 1-(3-tert-butyl-1-(2-oxo-1,2-dihydropyridin-4-yl)-1H-pyrazol-5-yl)-3-(3-(6,7-dimethoxyquinazolin-4-yloxy)phenyl)urea], the dissociation constant (Kd) on RAF kinases [1] was < 250 nM; at RAF kinases [4] it was 250 to 500 nM; at RAF kinases [5] it was 250 to 500 nM. The S35 entry in test [2] (setting [6]) is given as “D (D > 0.40)”. Also, in test [3], the IC50 lay in the range of 250 to 500 nM. The EC50 in the test with A375 cells is 500 to 1000 nM.

Take `COc1cc2ncnc(Sc3cccc(NC(=O)Nc4cc(C(C)(C)C)nn4C(C)C)c3)c2cc1OC` [Ex 335, 1-(3-tert-butyl-1-isopropyl-1H-pyrazol-5-yl)-3-(3-(6,7-dimethoxyquinazolin-4-ylthio)phenyl)urea]: the values for the equilibrium dissociation constant (Kd) on RAF kinases [1], at RAF kinases [4] and at RAF kinases [5] were < 250 nM, 250 to 500 nM and 250 to 500 nM, respectively. In test [2] (setting [6]), the S35 result is recorded as “C (0.20 < C ≦ 0.40)”. In addition, the IC50 in test [3] is 250 to 500 nM. Further, the EC50 in the test with A375 cells is > 1000 nM.

Take `COc1cc2ncnc(Oc3cccc(NC(=O)Nc4cc(C5CCC5)nn4-c4ccccc4)c3)c2cc1OC` [Ex 355, 1-(3-cyclobutyl-1-phenyl-1H-pyrazol-5-yl)-3-(3-(6,7-dimethoxyquinazolin-4-yloxy)phenyl)urea]: the values for the Kd at RAF kinases [1], on RAF kinases [4] and on RAF kinases [5] were < 250 nM, 500 to 1000 nM and 500 to 1000 nM, respectively. The S35 result in test [2] (setting [6]) is “C (0.20 < C ≦ 0.40)”. Also, the IC50 in test [3] is < 250 nM. In addition, in the test on A375 cells, the EC50 is < 250 nM.

For the compound `COc1cc2c(Sc3cccc(NC(=O)Nc4cc(C(C)(C)F)no4)c3)ncnc2cc1OCCN1CCOCC1` [Ex 248, 1-(3-(2-fluoropropan-2-yl)isoxazol-5-yl)-3-(3-(6-methoxy-7-(2-morpholinoethoxy)quinazolin-4-ylthio)phenyl)urea], the Kd on RAF kinases [1] was < 250 nM; on RAF kinases [4], 250 to 500 nM; on RAF kinases [5] it was 250 to 500 nM. For the same compound, in test [2] (asterisk: panel of 321 distinct kinases), the S35 result is given as “C* (0.20 < C ≦ 0.40)”. The IC50 in test [3] was in the range of 250 to 500 nM. For the same compound, the concentration for a half-maximal effect (EC50) in the test with A375 cells was > 1000 nM.

Consider `COc1cc2ncnc(Oc3cccc(NC(=O)Nc4cc(C(C)C)nn4-c4ccccc4)c3)c2cc1OC` [Ex 324, 1-(3-(6,7-dimethoxyquinazolin-4-yloxy)phenyl)-3-(3-isopropyl-1-phenyl-1H-pyrazol-5-yl)urea], for which the dissociation constant (Kd) on RAF kinases [1] was < 250 nM; on RAF kinases [4], 250 to 500 nM; at RAF kinases [5], 250 to 500 nM. Further, the S35 entry in test [2] (setting [6]) is on record as “D (D > 0.40)”. The IC50 in test [3] is < 250 nM. Besides, the EC50 in the test on A375 cells is < 250 nM.

As to `COc1cc2ncnc(Oc3cccc(NC(=O)Nc4cc(C(C)(C)C)nn4CC(C)C)c3)c2cc1OC` [Ex 332, 1-(3-tert-butyl-1-isobutyl-1H-pyrazol-5-yl)-3-(3-(6,7-dimethoxyquinazolin-4-yloxy)phenyl)urea], the dissociation constant Kd was < 250 nM on RAF kinases [1], 250 to 500 nM at RAF kinases [4] and 250 to 500 nM on RAF kinases [5]. The S35 entry in test [2] (setting [6]) is “C (0.20 < C ≦ 0.40)”. The IC50 in test [3] fell in the range of 500 to 1000 nM. Besides, the EC50 in the test on A375 cells was > 1000 nM.

Consider `COc1cc2ncnc(Oc3cccc(NC(=O)Nc4cc(C(C)C)nn4-c4cncc(F)c4)c3)c2cc1OC` [Ex 314, 1-(3-(6,7-dimethoxyquinazolin-4-yloxy)phenyl)-3-(1-(5-fluoropyridin-3-yl)-3-isopropyl-1H-pyrazol-5-yl)urea], for which the equilibrium dissociation constant (Kd) was < 250 nM on RAF kinases [1], 250 to 500 nM on RAF kinases [4] and 500 to 1000 nM at RAF kinases [5]. The S35 entry in test [2] (setting [6]) is “D (D > 0.40)”. Moreover, the IC50 in test [3] lay within 250 to 500 nM. Moreover, in the test on A375 cells, the EC50 is < 250 nM.

As for `COc1cc2ncnc(Sc3cccc(NC(=O)Nc4cc(C(C)(C)C)nn4-c4cccnc4)c3)c2cc1OC` [Ex 323, 1-(3-tert-butyl-1-(pyridin-3-yl)-1H-pyrazol-5-yl)-3-(3-(6,7-dimethoxyquinazolin-4-ylthio)phenyl)urea], the dissociation constant (Kd) on RAF kinases [1] is < 250 nM; at RAF kinases [4] it was 500 to 1000 nM; on RAF kinases [5], 500 to 1000 nM. Besides, the S35 entry in test [2] (setting [6]) is “D (D > 0.40)”. Also, the IC50 in test [3] was < 250 nM. Moreover, the EC50 with A375 cells was 250 to 500 nM.

Regarding `COc1cc2ncnc(Oc3cccc(NC(=O)Nc4cc(C(C)(F)F)nn4-c4ccccc4)c3)c2cc1OC` [Ex 318, 1-(3-(1,1-difluoroethyl)-1-phenyl-1H-pyrazol-5-yl)-3-(3-(6,7-dimethoxyquinazolin-4-yloxy)phenyl)urea], the figures for the equilibrium dissociation constant (Kd) at RAF kinases [1], at RAF kinases [4] and at RAF kinases [5] were < 250 nM, 250 to 500 nM and 250 to 500 nM, respectively. Besides, the S35 result in test [2] (setting [6]) is “C (0.20 < C ≦ 0.40)”. Moreover, in test [3], the IC50 is < 250 nM. For the same compound, the EC50 with A375 cells was < 250 nM.

Consider `COc1cc2ncnc(Oc3cccc(NC(=O)Nc4cc(C(C)(C)C)nn4-c4cncc(F)c4)c3)c2cc1OC` [Ex 326, 1-(3-tert-butyl-1-(5-fluoropyridin-3-yl)-1H-pyrazol-5-yl)-3-(3-(6,7-dimethoxyquinazolin-4-yloxy)phenyl)urea], for which the Kd on RAF kinases [1] is < 250 nM; on RAF kinases [4], 500 to 1000 nM; at RAF kinases [5] it was 500 to 1000 nM. Moreover, the S35 result in test [2] (setting [6]) is given as “D (D > 0.40)”. In addition, the 50% inhibitory concentration (IC50) in test [3] was < 250 nM.

As for `COc1cc2ncnc(Sc3cccc(NC(=O)Nc4cc(C(C)(C)C)nn4-c4cncc(F)c4)c3)c2cc1OC` [Ex 327, 1-(3-tert-butyl-1-(5-fluoropyridin-3-yl)-1H-pyrazol-5-yl)-3-(3-(6,7-dimethoxyquinazolin-4-ylthio)phenyl)urea], the Kd was < 250 nM at RAF kinases [1], 500 to 1000 nM on RAF kinases [4] and 500 to 1000 nM at RAF kinases [5]. Also, in test [2] (setting [6]), the S35 entry was “D (D > 0.40)”. Moreover, the half-maximal inhibitory concentration (IC50) in test [3] is < 250 nM.

As for `COc1cc2ncnc(Sc3cccc(NC(=O)Nc4cc(C(C)(C)C)nn4CC(C)C)c3)c2cc1OC` [Ex 333, 1-(3-tert-butyl-1-isobutyl-1H-pyrazol-5-yl)-3-(3-(6,7-dimethoxyquinazolin-4-ylthio)phenyl)urea], the equilibrium dissociation constant (Kd) at RAF kinases [1] is < 250 nM; on RAF kinases [4], 250 to 500 nM; on RAF kinases [5], 250 to 500 nM. Further, in test [2] (setting [6]), the S35 result was “C (0.20 < C ≦ 0.40)”. Moreover, the concentration for half-maximal inhibition (IC50) in test [3] lay within 500 to 1000 nM.

On to `COc1cc2ncnc(Sc3cccc(NC(=O)Nc4cc(C(C)C)nn4-c4ccccc4)c3)c2cc1OC` [Ex 325, 1-(3-(6,7-dimethoxyquinazolin-4-ylthio)phenyl)-3-(3-isopropyl-1-phenyl-1H-pyrazol-5-yl)urea], for which the equilibrium dissociation constant (Kd) is < 250 nM at RAF kinases [1], 250 to 500 nM on RAF kinases [4] and 250 to 500 nM on RAF kinases [5]. In addition, in test [2] (setting [6]), the S35 result was “C (0.20 < C ≦ 0.40)”. The IC50 in test [3] is < 250 nM. Further, the EC50 with A375 cells is < 250 nM.

As for `COc1cc2ncnc(Oc3cccc(NC(=O)Nc4cc(C(C)(C)C)nn4-c4ccc(C#N)cc4)c3)c2cc1OC` [Ex 328, 1-(3-tert-butyl-1-(4-cyanophenyl)-1H-pyrazol-5-yl)-3-(3-(6,7-dimethoxyquinazolin-4-yloxy)phenyl)urea], the dissociation constant Kd is < 250 nM on RAF kinases [1], 250 to 500 nM at RAF kinases [4] and 250 to 500 nM on RAF kinases [5]. Besides, in test [2] (setting [6]), the S35 result is listed as “D (D > 0.40)”. The IC50 in test [3] was < 250 nM.

The values above are taken from patent publication US8618289B2 (Ambit Biosciences Corporation, priority 2008, dated 2013).
